{"source": "PubChem BioAssay AID1963972", "about": "(Molecular Pharmacology Branch, DTP, NCI, 2024)", "system": "945468-187-T-J2-PDC spheroids viability", "test": "Anticancer human tumor 945468-187-T-J2-PDC patient-derived rectal carcinoma cell line growth inhibition [PI3K]", "conditions": "spheroids with HUVEC and MSC; for IC50: curve of first compound; for viability, T/C: stronger effect = lower value", "outline": "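Stroma-containing spheroids: tumor line, pooled-donor HUVEC, hMSC. Treatments: targeted agents with PI3K inhibitors. Dosing: clinically relevant, half-log spacing, 10 microM ceiling without known Cmax. Read-out: cell viability.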", "data": [{"molecule": "CC1(C)CCC(Nc2ncc(C(F)(F)F)c(-c3c[nH]c4c(P(C)(C)=O)c(C#N)ccc34)n2)CN1", "note": "(centres undefined) + CC(Nc1ncnc2nc[nH]c12)c1cc2cccc(Cl)c2c(=O)n1-c1ccccc1;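 also: spheroids exposed to compounds for seven days before reading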", "values": [{"measurement": "IC50", "setting": "second compound 0.0316 µM", "value": 0.667, "unit": "µM"}, {"measurement": "IC50", "setting": "second compound 0.1 µM", "value": 0.605, "unit": "µM"}, {"measurement": "IC50", "setting": "second compound 0.316 µM", "value": 0.736, "unit": "µM"}, {"measurement": "IC50", "setting": "second compound 1 µM", "value": 0.685, "unit": "µM"}, {"measurement": "IC50", "setting": "second compound 3.16 µM", "value": 0.665, "unit": "µM"}, {"measurement": "IC50", "setting": "second compound 10 µM", "value": 0.548, "unit": "µM"}, {"measurement": "viability, T/C", "setting": "second compound 0.0316 µM, first compound 0.0316 µM", "value": 91.5, "unit": "%"}, {"measurement": "viability, T/C", "setting": "second compound 0.0316 µM, first compound 0.1 µM", "value": 95.5, "unit": "%"}, {"measurement": "viability, T/C", "setting": "second compound 0.0316 µM, first compound 0.316 µM", "value": 77.8, "unit": "%"}, {"measurement": "viability, T/C", "setting": "second compound 0.0316 µM, first compound 1 µM", "value": 35, "unit": "%"}, {"measurement": "viability, T/C", "setting": "second compound 0.0316 µM, first compound 3.16 µM", "value": 30.3, "unit": "%"}, {"measurement": "viability, T/C", "setting": "second compound 0.0316 µM, first compound 10 µM", "value": 29.3, "unit": "%"}, {"measurement": "viability, T/C", "setting": "second compound 0.1 µM, first compound 0.0316 µM", "value": 95.6, "unit": "%"}, {"measurement": "viability, T/C", "setting": "second compound 0.1 µM, first compound 0.1 µM", "value": 92.4, "unit": "%"}, {"measurement": "viability, T/C", "setting": "second compound 0.1 µM, first compound 0.316 µM", "value": 66.3, "unit": "%"}, {"measurement": "viability, T/C", "setting": "second compound 0.1 µM, first compound 1 µM", "value": 37.2, "unit": "%"}, {"measurement": "viability, T/C", "setting": "second compound 0.1 µM, first compound 3.16 µM", "value": 33.9, "unit": "%"}, {"measurement": "viability, T/C", "setting": "second compound 0.1 µM, first compound 10 µM", "value": 30.5, "unit": "%"}, {"measurement": "viability, T/C", "setting": "second compound 0.316 µM, first compound 0.0316 µM", "value": 89.7, "unit": "%"}, {"measurement": "viability, T/C", "setting": "second compound 0.316 µM, first compound 0.1 µM", "value": 86.9, "unit": "%"}, {"measurement": "viability, T/C", "setting": "second compound 0.316 µM, first compound 0.316 µM", "value": 63.7, "unit": "%"}, {"measurement": "viability, T/C", "setting": "second compound 0.316 µM, first compound 1 µM", "value": 44.8, "unit": "%"}, {"measurement": "viability, T/C", "setting": "second compound 0.316 µM, first compound 3.16 µM", "value": 35.1, "unit": "%"}, {"measurement": "viability, T/C", "setting": "second compound 0.316 µM, first compound 10 µM", "value": 28.1, "unit": "%"}, {"measurement": "viability, T/C", "setting": "second compound 1 µM, first compound 0.0316 µM", "value": 104, "unit": "%"}, {"measurement": "viability, T/C", "setting": "second compound 1 µM, first compound 0.1 µM", "value": 81.5, "unit": "%"}, {"measurement": "viability, T/C", "setting": "second compound 1 µM, first compound 0.316 µM", "value": 56.9, "unit": "%"}, {"measurement": "viability, T/C", "setting": "second compound 1 µM, first compound 1 µM", "value": 40.7, "unit": "%"}, {"measurement": "viability, T/C", "setting": "second compound 1 µM, first compound 3.16 µM", "value": 46.3, "unit": "%"}, {"measurement": "viability, T/C", "setting": "second compound 1 µM, first compound 10 µM", "value": 25.6, "unit": "%"}, {"measurement": "viability, T/C", "setting": "second compound 3.16 µM, first compound 0.0316 µM", "value": 92.4, "unit": "%"}, {"measurement": "viability, T/C", "setting": "second compound 3.16 µM, first compound 0.1 µM", "value": 82.4, "unit": "%"}, {"measurement": "viability, T/C", "setting": "second compound 3.16 µM, first compound 0.316 µM", "value": 69.2, "unit": "%"}, {"measurement": "viability, T/C", "setting": "second compound 3.16 µM, first compound 1 µM", "value": 38.5, "unit": "%"}, {"measurement": "viability, T/C", "setting": "second compound 3.16 µM, first compound 3.16 µM", "value": 34.9, "unit": "%"}, {"measurement": "viability, T/C", "setting": "second compound 3.16 µM, first compound 10 µM", "value": 32.4, "unit": "%"}, {"measurement": "viability, T/C", "setting": "second compound 10 µM, first compound 0.0316 µM", "value": 125, "unit": "%"}, {"measurement": "viability, T/C", "setting": "second compound 10 µM, first compound 0.1 µM", "value": 76.3, "unit": "%"}, {"measurement": "viability, T/C", "setting": "second compound 10 µM, first compound 0.316 µM", "value": 60.4, "unit": "%"}, {"measurement": "viability, T/C", "setting": "second compound 10 µM, first compound 1 µM", "value": 42.8, "unit": "%"}, {"measurement": "viability, T/C", "setting": "second compound 10 µM, first compound 3.16 µM", "value": 39, "unit": "%"}, {"measurement": "viability, T/C", "setting": "second compound 10 µM, first compound 10 µM", "value": 21.5, "unit": "%"}]}, {"molecule": "Cn1cnc2c(F)c(Nc3ccc(Br)cc3Cl)c(C(=O)NOCCO)cc21", "note": "+ COc1c(OCCCN2CCOCC2)ccc2c3n(c(=NC(=O)c4cnc(N)nc4)nc12)CCN3", "values": [{"measurement": "IC50", "setting": "second compound 0.00316 µM", "value": "> 3", "unit": "µM"}, {"measurement": "IC50", "setting": "second compound 0.01 µM", "value": "> 3", "unit": "µM"}, {"measurement": "IC50", "setting": "second compound 0.0316 µM", "value": 2.95, "unit": "µM"}, {"measurement": "IC50", "setting": "second compound 0.1 µM", "value": 0.657, "unit": "µM"}, {"measurement": "IC50", "setting": "second compound 0.316 µM", "value": "< 0.00949", "unit": "µM"}, {"measurement": "IC50", "setting": "second compound 1 µM", "value": "< 0.00949", "unit": "µM"}, {"measurement": "viability, T/C", "setting": "second compound 0.00316 µM, first compound 0.00949 µM", "value": 99.9, "unit": "%"}, {"measurement": "viability, T/C", "setting": "second compound 0.00316 µM, first compound 0.03 µM", "value": 129, "unit": "%"}, {"measurement": "viability, T/C", "setting": "second compound 0.00316 µM, first compound 0.0949 µM", "value": 109, "unit": "%"}, {"measurement": "viability, T/C", "setting": "second compound 0.00316 µM, first compound 0.3 µM", "value": 94.6, "unit": "%"}, {"measurement": "viability, T/C", "setting": "second compound 0.00316 µM, first compound 0.949 µM", "value": 85.4, "unit": "%"}, {"measurement": "viability, T/C", "setting": "second compound 0.00316 µM, first compound 3 µM", "value": 81.5, "unit": "%"}, {"measurement": "viability, T/C", "setting": "second compound 0.01 µM, first compound 0.00949 µM", "value": 125, "unit": "%"}, {"measurement": "viability, T/C", "setting": "second compound 0.01 µM, first compound 0.03 µM", "value": 146, "unit": "%"}, {"measurement": "viability, T/C", "setting": "second compound 0.01 µM, first compound 0.0949 µM", "value": 109, "unit": "%"}, {"measurement": "viability, T/C", "setting": "second compound 0.01 µM, first compound 0.3 µM", "value": 94.1, "unit": "%"}, {"measurement": "viability, T/C", "setting": "second compound 0.01 µM, first compound 0.949 µM", "value": 92.5, "unit": "%"}, {"measurement": "viability, T/C", "setting": "second compound 0.01 µM, first compound 3 µM", "value": 67.5, "unit": "%"}, {"measurement": "viability, T/C", "setting": "second compound 0.0316 µM, first compound 0.00949 µM", "value": 95, "unit": "%"}, {"measurement": "viability, T/C", "setting": "second compound 0.0316 µM, first compound 0.03 µM", "value": 111, "unit": "%"}, {"measurement": "viability, T/C", "setting": "second compound 0.0316 µM, first compound 0.0949 µM", "value": 85.4, "unit": "%"}, {"measurement": "viability, T/C", "setting": "second compound 0.0316 µM, first compound 0.3 µM", "value": 98.6, "unit": "%"}, {"measurement": "viability, T/C", "setting": "second compound 0.0316 µM, first compound 0.949 µM", "value": 71.9, "unit": "%"}, {"measurement": "viability, T/C", "setting": "second compound 0.0316 µM, first compound 3 µM", "value": 49.6, "unit": "%"}, {"measurement": "viability, T/C", "setting": "second compound 0.1 µM, first compound 0.00949 µM", "value": 102, "unit": "%"}, {"measurement": "viability, T/C", "setting": "second compound 0.1 µM, first compound 0.03 µM", "value": 94.9, "unit": "%"}, {"measurement": "viability, T/C", "setting": "second compound 0.1 µM, first compound 0.0949 µM", "value": 88.8, "unit": "%"}, {"measurement": "viability, T/C", "setting": "second compound 0.1 µM, first compound 0.3 µM", "value": 74.1, "unit": "%"}, {"measurement": "viability, T/C", "setting": "second compound 0.1 µM, first compound 0.949 µM", "value": 38.3, "unit": "%"}, {"measurement": "viability, T/C", "setting": "second compound 0.1 µM, first compound 3 µM", "value": 17.7, "unit": "%"}, {"measurement": "viability, T/C", "setting": "second compound 0.316 µM, first compound 0.00949 µM", "value": 39.9, "unit": "%"}, {"measurement": "viability, T/C", "setting": "second compound 0.316 µM, first compound 0.03 µM", "value": 40, "unit": "%"}, {"measurement": "viability, T/C", "setting": "second compound 0.316 µM, first compound 0.0949 µM", "value": 34.1, "unit": "%"}, {"measurement": "viability, T/C", "setting": "second compound 0.316 µM, first compound 0.3 µM", "value": 21.9, "unit": "%"}, {"measurement": "viability, T/C", "setting": "second compound 0.316 µM, first compound 0.949 µM", "value": 16.3, "unit": "%"}, {"measurement": "viability, T/C", "setting": "second compound 0.316 µM, first compound 3 µM", "value": 6.67, "unit": "%"}, {"measurement": "viability, T/C", "setting": "second compound 1 µM, first compound 0.00949 µM", "value": 20, "unit": "%"}, {"measurement": "viability, T/C", "setting": "second compound 1 µM, first compound 0.03 µM", "value": 18.6, "unit": "%"}, {"measurement": "viability, T/C", "setting": "second compound 1 µM, first compound 0.0949 µM", "value": 18.1, "unit": "%"}, {"measurement": "viability, T/C", "setting": "second compound 1 µM, first compound 0.3 µM", "value": 11.3, "unit": "%"}, {"measurement": "viability, T/C", "setting": "second compound 1 µM, first compound 0.949 µM", "value": 10.4, "unit": "%"}, {"measurement": "viability, T/C", "setting": "second compound 1 µM, first compound 3 µM", "value": 5.87, "unit": "%"}]}]}
